Key:
[1] = molecular target: T1, CSF1R kinase (recombinant N-terminal GST-CSF1R, residues L534-C972) (Homo sapiens, UniProt P07333); test: CSF1R Kinase-Glo assay; format: biochemical; settings: 40 μM ATP, 30° C. 180 min, read-out: Enzymatic Assay CSF1R enzyme IC50
T1 construct: Recombinant N-terminal GST-CSF1R (CSF1R residues L534-C972) containing the CSFIR kinase domain; made in house; host or cells: Sf9 insect cells
T1 sequence (P07333 534-972): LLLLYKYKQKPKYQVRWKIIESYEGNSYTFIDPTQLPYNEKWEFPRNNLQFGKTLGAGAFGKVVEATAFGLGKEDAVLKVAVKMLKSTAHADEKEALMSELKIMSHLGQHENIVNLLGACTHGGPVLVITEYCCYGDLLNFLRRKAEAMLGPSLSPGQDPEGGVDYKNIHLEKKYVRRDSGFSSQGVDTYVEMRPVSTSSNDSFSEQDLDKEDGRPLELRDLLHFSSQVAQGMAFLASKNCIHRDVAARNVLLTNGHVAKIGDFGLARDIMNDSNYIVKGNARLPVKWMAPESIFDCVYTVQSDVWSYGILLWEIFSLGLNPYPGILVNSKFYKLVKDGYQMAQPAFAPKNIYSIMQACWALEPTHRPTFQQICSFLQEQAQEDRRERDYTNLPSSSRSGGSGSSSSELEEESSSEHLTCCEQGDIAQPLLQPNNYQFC
Description: A study was conducted to test certain compounds described in EXAMPLE 1 in inhibiting CSF1R kinase activity.
Activity of CSF1R kinase was determined using a CSF1R Kinase-Glo assay. Recombinant N-terminal GST-CSF1R (CSF1R residues L534-C972) containing the CSFIR kinase domain was expressed in Sf9 insect cells and purified. The kinase assay was carried out in 96-well plates at 30° C. for 180 min with the tested compounds in a final volume of 50 μl including the following components: 25 mM Tris-HCl pH 7.4, 4 mM MnCl2, 10 mM MgCl2, 0.01% BSA, 0.5 mM NA3VO4, 0.02% Triton X-100, 40 μM ATP, 2 mM DTT and 20 μM poly(Glu,Tyr) 4:1 peptide, and 600 ng recombinant GST-CSF1R. Following incubation, 50 μl Kinase-Glo Plus Reagent (Promega, Madison, WI, USA) was added and the mixture was incubated at 25° C. for 20 min. A 70-μL aliquot of each reaction mixture was transferred to a black microtiter plate and luminescence was measured on Wallac Vector 1420 multilabel counter (PerkinElmer, Shelton, CT, USA). Percentage inhibition values were obtained by comparison of reaction rate with the rates in control wells (i.e., in the absence of test compound). IC50 values were calculated from a series of percentage inhibition values determined at a range of test compound concentrations using GraphPad Prism version 6 software (GraphPad, San Diego, CA, USA).

[2] = system: M-NFS-60 cells; test: MTS cell viability assay, M-NFS-60; format: cell-based; settings: 72 h, read-out: Cellular Proliferation Assay M-NFS-60 (nM) GI50
Description: (§1) Studies were conducted to evaluate […] anticancer activity of certain compounds described in EXAMPLE 1 using 3-(4,5-dimethylthiazol-2-yl)-5-(3-carboxymethoxyphenyl)-2-(4-sulfophenyl)-2H-tetrazolium) (MTS) cell viability assays. Results from these studies are shown in Table 2 below (see columns 3 and 4).
(§2) The cell lines M-NFS-60 (ATCC® CRL-1838™) and BaF3-CSF1R-1600 were obtained from American Type Culture Collection (ATCC, Manassas, VA, USA). The stable BaF3-CSF1R-1600 cell line expresses ETV6-CSF1R fusion protein consisting of N-terminal ETS-variant gene 6 protein (ETV6 residues M1-G337) and CSF1R tyrosine kinase (CSF1R residues L533-C972). The M-NSF-60 and BaF3-CSF1R-1600 cells were cultured in RPMI1640 medium supplemented with 10% fetal bovine serum, 0.05 mM 2-ME, 10 U/ml penicillin, and 10 µg/ml streptomycin at 37° C. and 5% CO2.
(§3) M-NFS-60 and BaF3-CSF1R-1600 cells were seeded in 96-well plates at a density of 10000 cells/100 μl and 8000 cells/100 μl per well, respectively, for 16 h and treated with vehicle or various concentrations of test compounds in medium for 72 h. Viable cells were quantified using the MTS method (Promega, Madison, WI, USA) according to manufacturer's recommended protocol. The results were determined by measuring absorbance at 490 nm using a plate reader (Victor 2). The GI50 value was defined as the amount of compound that caused 50% reduction in cell viability in comparison with DMSO-treated (vehicle) control and was calculated using Prism GraphPad Prism version 6 software (GraphPad).

[3] = system: BaF3-CSF1R-1600 cells (express ETV6-CSF1R fusion protein); test: MTS cell viability assay, BaF3-CSF1R-1600; format: cell-based; settings: 72 h, read-out: Cellular Proliferation Assay BaF3-CSF1R GI50
Description: as §1, §2, §3

Structure (SMILES)	IC50 [1]	GI50 [2]	GI50 [3]
CN(C)c1ccc2c(Oc3ccc4c(cnn4C(=O)NCc4ccc(C(F)(F)F)nc4)c3)ncnc2c1 [Compound 69]	> 1000 nM	–	–
Cc1ccc(CNC(=O)Nc2ccc(Oc3ncnc4cc(N(C)C)ccc34)cc2)cn1 [Compound 65, 1-(4-((7-(dimethylamino)quinazolin-4-yl)oxy)phenyl)-3-((6-methylpyridin-3-yl)methyl)urea]	< 20 nM	20 to 100 nM	20 to 100 nM
O=C(Nc1ccccc1)Nc1ccc(Oc2ncnc3cc(N4CCC[C@@H]4CO)ccc23)cc1 [Compound 1]	20 to 100 nM	100 to 1000 nM	100 to 1000 nM
O=C(Nc1ccccc1)Nc1ccc(Oc2ncnc3cc(N[C@@H]4CCCC[C@H]4O)ccc23)cc1 [Compound 5]	20 to 100 nM	100 to 1000 nM	–
CN(C)c1ccc2c(Oc3ccc(NC(=O)Nc4ccc(C(F)(F)F)cc4)cc3)ncnc2c1 [Compound 13]	100 to 1000 nM	–	–
O=C(NCc1ccc(C(F)(F)F)nc1)Nc1ccc(Oc2ncnc3cc(Br)ccc23)cc1 [Compound 31, 1-(4-((7-Bromoquinazolin-4-yl)oxy)phenyl)-3-((6-(trifluoromethyl)pyridin-3-yl)methyl)urea]	100 to 1000 nM	> 1000 nM	100 to 1000 nM
CN(C)c1ccc2c(Oc3ccc(NC(=O)Nc4ccccc4Cl)cc3)ncnc2c1 [Compound 15]	< 20 nM	100 to 1000 nM	20 to 100 nM
CN(C)C1CCN(c2ccc3c(Oc4ccc(NC(=O)Nc5ccccc5)cc4)ncnc3c2)CC1 [Compound 11]	20 to 100 nM	20 to 100 nM	20 to 100 nM
COc1ccc(CNC(=O)Nc2ccc(Oc3ncnc4cc(N(C)C)ccc34)cc2)cc1OC [Compound 55]	20 to 100 nM	–	–
CNc1ccc2c(Oc3ccc(NC(=O)Nc4ccccc4)cc3)ncnc2c1 [Compound 107]	20 to 100 nM	–	–
CN(C)c1ccc2c(Oc3ccc(NC(=O)NCc4cccnc4)cc3)ncnc2c1 [Compound 54]	100 to 1000 nM	–	–
CN(C)c1ccc2c(Oc3ccc(NC(=O)NCc4ccc(C(F)(F)F)cc4)cc3)ncnc2c1 [Compound 56]	20 to 100 nM	100 to 1000 nM	20 to 100 nM
COCCCNC(=O)c1cc(Oc2ccc(NC(=O)Nc3ccccc3)cc2)ccn1 [Compound 72]	> 1000 nM	–	–
COCCN1CCN(c2ccc3c(Oc4ccc(NC(=O)NCc5ccc(C(F)(F)F)nc5)cc4)ncnc3c2)CC1 [Compound 108]	20 to 100 nM	20 to 100 nM	20 to 100 nM
CCN1CCN(c2ccc3c(Oc4ccc(NC(=O)NCc5ccc(C(F)(F)F)nc5)cc4)ncnc3c2)CC1 [Compound 100]	< 20 nM	20 to 100 nM	20 to 100 nM
CN(C)c1ccc2c(Oc3ccc4nc(NCc5ccc(C(F)(F)F)nc5)oc4c3)ncnc2c1 [Compound 102]	20 to 100 nM	> 1000 nM	100 to 1000 nM
CN(C)c1ccc2c(Oc3ccc(NC(=O)NCc4ccc(C(F)(F)F)nc4)cc3)c(C#N)cnc2c1 [Compound 75]	> 1000 nM	–	–
CN(C)c1ccc2c(Oc3ccc(NC(=O)NCc4ccccc4)cc3)ncnc2c1 [Compound 51]	< 20 nM	20 to 100 nM	20 to 100 nM
CN(C)c1ccc2c(Oc3ccc(NC(=O)NCc4ccn(C)n4)cc3)ncnc2c1 [Compound 84]	100 to 1000 nM	–	–
CN(C)c1ccc2c(Oc3ccc(NC(=O)NCc4ccc(C(F)(F)F)cc4)c(F)c3)ncnc2c1 [Compound 61]	100 to 1000 nM	–	–
CN(C)c1ccc2c(Oc3ccc(N(C)C(=O)NCc4ccc(C(F)(F)F)nc4)cc3)ncnc2c1 [Compound 47]	> 1000 nM	–	–
CN(C)c1ccc2c(Oc3ccc(NC(=O)Nc4cccc(C(F)(F)F)c4)cc3)ncnc2c1 [Compound 53]	100 to 1000 nM	–	–
CN(C)c1ccc2c(Oc3ccc(NC(=O)NCC4CCCCC4)cc3)ncnc2c1 [Compound 50]	20 to 100 nM	–	–
CN(C)c1ccc2c(Oc3ccc(NC(=O)NCc4ccc(C#N)cc4)cc3)ncnc2c1 [Compound 60]	20 to 100 nM	–	–

Structure (SMILES)	IC50 [1]	GI50 [2]	GI50 [3]
O=C(Nc1ccccc1)Nc1ccc(Oc2ncnc3cc(F)ccc23)cc1 [Compound 8]	100 to 1000 nM	–	–
CN(C)c1ccc2c(Oc3ccc(NC(=O)Nc4cccc5ccccc45)cc3)ncnc2c1 [Compound 52]	100 to 1000 nM	–	–
Cn1cc(-c2ccc3c(Oc4ccc(NC(=O)NCc5ccc(C(F)(F)F)nc5)cc4)ncnc3c2)cn1 [Compound 85]	20 to 100 nM	–	–
O=C(NCc1ccc(C(F)(F)F)nc1)Nc1ccc(Oc2ncnc3[nH]ccc23)cc1 [Compound 93]	20 to 100 nM	–	–
CN(C)c1ccc2c(Oc3ccc(NC(=O)NCc4c(F)c(F)c(F)c(F)c4F)cc3)ncnc2c1 [Compound 62]	< 20 nM	–	100 to 1000 nM
Cc1cc(Oc2ncnc3cc(N(C)C)ccc23)c(C)cc1NC(=O)NCc1ccc(C(F)(F)F)nc1 [Compound 35]	> 1000 nM	–	–
COc1ccc(CNC(=O)Nc2ccc(Oc3ncnc4cc(N(C)C)ccc34)cc2C)cc1 [Compound 64]	> 1000 nM	–	–
COC(C)(C)CNC(=O)Nc1ccc(Oc2ncnc3cc(N(C)C)ccc23)cc1 [Compound 87]	> 1000 nM	–	–
CN(C)c1ccc2c(Oc3ccc4c(ccn4C(=O)NCc4ccc(C(F)(F)F)nc4)n3)ncnc2c1 [Compound 89]	100 to 1000 nM	–	–
CN(C)c1ccc2c(Nc3ccc(NC(=O)Nc4ccccc4)cc3)ncnc2c1 [Compound 71]	100 to 1000 nM	–	–
CN(C)c1ccc2c(Oc3ccc(NC(=O)NCc4ccc(C(F)(F)F)nc4)c(F)c3)ncnc2c1 [Compound 36]	20 to 100 nM	100 to 1000 nM	–
COC[C@@H]1CCCN1c1ccc2c(Oc3ccc(NC(=O)Nc4ccccc4)cc3)ncnc2c1 [Compound 6]	20 to 100 nM	–	–
CN(C)c1ccc2c(Oc3cnc4c(ccn4C(=O)NCc4ccc(C(F)(F)F)nc4)c3)ncnc2c1 [Compound 83]	100 to 1000 nM	–	–
O=C(Nc1ccccc1)Nc1ccc(Oc2ncnc3cc(Br)ccc23)cc1 [Compound 7]	> 1000 nM	–	–
Cc1cc(Oc2ncnc3cc(N(C)C)ccc23)ccc1NC(=O)NCc1ccc(C(F)(F)F)nc1 [Compound 38]	> 1000 nM	–	–
O=C(NCc1ccc(C(F)(F)F)nc1)Nc1ccc(Oc2ccnc(C(=O)NCCCN3CCOCC3)c2)cc1 [Compound 77]	100 to 1000 nM	–	–
COCCCNc1ccc2c(Oc3ccc(NC(=O)Nc4ccccc4)cc3)ncnc2c1 [Compound 12]	20 to 100 nM	–	–
CN(C)c1ccc2c(Oc3ccc(NC(=O)NCC(C)(C)C)cc3)ncnc2c1 [Compound 90]	100 to 1000 nM	–	–
CN(C)c1ccc2c(Oc3ccc(NC(=O)NCc4ccc(C(F)(F)F)nc4)cc3)ccnc2c1 [Compound 73]	20 to 100 nM	–	–
CCc1cc(Oc2ncnc3cc(N(C)C)ccc23)ccc1NC(=O)NCc1ccc(C(F)(F)F)nc1 [Compound 29]	100 to 1000 nM	–	–
CN(C)c1ccc2c(Oc3ccc(NC(=S)Nc4ccccc4)cc3)ncnc2c1 [Compound 22]	100 to 1000 nM	–	–
CN(CCCO)c1ccc2c(Oc3ccc(NC(=O)NCc4ccc(C(F)(F)F)nc4)cc3)ncnc2c1 [Compound 39]	< 20 nM	100 to 1000 nM	–
CCOc1cc2ncnc(Oc3ccc(NC(=O)NCc4ccc(C(F)(F)F)nc4)cc3)c2cc1F [Compound 41]	20 to 100 nM	–	100 to 1000 nM

Reference: patent US12668584B2, “Heterocyclic compounds as kinase inhibitors for therapeutic uses” (National Health Research Institutes, priority 2019, dated 2026)
